From ChEMBL document CHEMBL3779884, “Anti-Staphylococcal Biofilm Effects of Human Cathelicidin Peptides” (ACS Med Chem Lett, 2016) come the findings set out here.

Data set [1] has as its system Staphylococcus aureus. Briefly: Antibacterial activity against Staphylococcus aureus clinical isolate USA400 incubated for 20 hrs by microplate reader analysis. It counts as functional. As to conditions: isolate USA400, 20 h.
For data set [2], the system named is Staphylococcus aureus. Briefly: Antibiofilm activity against Staphylococcus aureus clinical isolate USA300 assessed as dead cells at 3.1 to 25 uM incubated for 24 hrs by SYTO 9/propidium iodide staining based confocal laser scanning microscopy. It counts as functional, organism-based.
The subject of data set [3] is Staphylococcus aureus. The data set can be described thus: Inhibition of biofilm formation in Staphylococcus aureus clinical isolate USA300 at 3.1 to 25 uM incubated for 24 hrs by XTT/PMS assay. It counts as functional, organism-based. A general note: Tetrazolium assays rely on reduction of a dye to a coloured formazan, in cell work by metabolically active cells.
In data set [4] the test system is Staphylococcus aureus. Briefly: Antibacterial activity against Staphylococcus aureus Mu50 incubated for 20 hrs by microplate reader analysis. Format: functional. As to conditions: Mu50, 20 h.
The test system of data set [5] is Staphylococcus aureus. The data set can be described thus: Antibiofilm activity against Staphylococcus aureus clinical isolate USA200 assessed as 24 hr preformed biofilm disruption at 3.1 to 25 uM incubated for 24 hrs by XTT assay. Format: functional, organism-based.
Data set [6] deals with Staphylococcus aureus. The data set can be described thus: Antibiofilm activity against Staphylococcus aureus clinical isolate USA300 assessed as disruption of 72 hr-preformed biofilm at 6.2 uM incubated for 24 hrs by XTT assay in presence of 1.6 uM daptomycin. It counts as functional, organism-based.
The nature of data set [7]: Hemolytic activity against human RBC after 1 hr by microplate reader analysis. Format: ADME, cell-based, Erythrocyte. As to conditions: red blood cells.
Data set [8] relates to Staphylococcus aureus. The data set can be described thus: Antibacterial activity against Staphylococcus aureus clinical isolate USA200 incubated for 20 hrs by microplate reader analysis. It counts as functional. As to conditions: isolate USA200, 20 h.
A further data set relates to HaCaT. The data set can be described thus: Cytotoxic activity against human HaCaT cells assessed as reduction in cell viability at 20 to 100 uM incubated for 1 hr by MTS assay. It counts as cell-based.
Data set [9] has as its system Staphylococcus aureus. The data set can be described thus: Antibacterial activity against Staphylococcus aureus clinical isolate UAMS-1 incubated for 20 hrs by microplate reader analysis. Format: functional. As to conditions: isolate UAMS-1, 20 h.
Data set [10] relates to Staphylococcus aureus. Briefly: Antibacterial activity against Staphylococcus aureus Newman incubated for 20 hrs by microplate reader analysis. Format: functional.
In data set [11] the test system is Staphylococcus aureus. Briefly: Antibiofilm activity against Staphylococcus aureus clinical isolate USA400 assessed as 24 hr preformed biofilm disruption at 3.1 to 25 uM incubated for 24 hrs by XTT assay. Format: functional, organism-based.
The subject of data set [12] is Staphylococcus aureus. Briefly: Antibiofilm activity against Staphylococcus aureus Mu50 assessed as 24 hr preformed biofilm disruption at 3.1 to 25 uM incubated for 24 hrs by XTT assay. Format: functional, organism-based.
The subject of data set [13] is Staphylococcus aureus. The data set can be described thus: Antibiofilm activity against Staphylococcus aureus clinical isolate USA300 assessed as disruption of 72 hr-preformed biofilm at 6.2 uM incubated for 24 hrs by XTT assay in presence of 1.6 uM vancomycin. It counts as functional, organism-based.
Data set [14] concerns Staphylococcus aureus. The data set can be described thus: Antibiofilm activity against Staphylococcus aureus Newman assessed as 24 hr preformed biofilm disruption at 3.1 to 25 uM incubated for 24 hrs by XTT assay. It counts as functional, organism-based.
The test system of data set [15] is Staphylococcus aureus. The data set can be described thus: Antibiofilm activity against Staphylococcus aureus clinical isolate UAMS-1 assessed as 24 hr preformed biofilm disruption at 3.1 to 25 uM incubated for 24 hrs by XTT assay. Format: functional, organism-based.
Data set [16] relates to Staphylococcus aureus. Briefly: Antibiofilm activity against Staphylococcus aureus clinical isolate USA300 assessed as 24 hr preformed biofilm disruption at 3.1 to 25 uM incubated for 24 hrs by XTT assay. Format: functional, organism-based.
Data set [17] concerns Staphylococcus aureus. Briefly: Antibacterial activity against Staphylococcus aureus clinical isolate USA300 incubated for 20 hrs by microplate reader analysis. Format: functional. The conditions noted are these: isolate USA300, 20 h.
The test system of data set [18] is Staphylococcus aureus. The data set can be described thus: Antibiofilm activity against Staphylococcus aureus clinical isolate USA300 assessed as inhibition of bacterial attachment at 25 uM incubated for 1 hr by XTT/PMS assay. It counts as functional, organism-based.
Data set [19] deals with Staphylococcus aureus. Briefly: Antibiofilm activity against Staphylococcus aureus clinical isolate UAMS-1 assessed as 24 hr preformed biofilm disruption at 12.5 to 25 uM incubated for 24 hrs by XTT assay. It counts as functional, organism-based.
In data set [20] the test system is Staphylococcus aureus. Briefly: Antibiofilm activity against Staphylococcus aureus harboring […] mutant assessed as inhibition of bacterial attachment at 3.1 to 25 uM incubated for 24 hrs by XTT/PMS assay. Format: functional, organism-based.
The test system of data set [21] is Staphylococcus aureus. The data set can be described thus: Antibiofilm activity against Staphylococcus aureus Mu50 assessed as 24 hr preformed biofilm disruption at 12.5 to 25 uM incubated for 24 hrs by XTT assay. Format: functional, organism-based.
The subject of data set [22] is Staphylococcus aureus. The data set can be described thus: Antibiofilm activity against Staphylococcus aureus harboring fnbA mutant assessed as 24 hr preformed biofilm disruption at 3.1 to 25 uM incubated for 24 hrs by XTT assay. It counts as functional, organism-based.
Data set [23] has as its system Staphylococcus aureus. Briefly: Antibiofilm activity against Staphylococcus aureus harboring fnbA mutant assessed as inhibition of bacterial attachment at 3.1 to 25 uM incubated for 24 hrs by XTT/PMS assay. It counts as functional, organism-based.
The subject of data set [24] is Staphylococcus aureus. Briefly: Antibiofilm activity against Staphylococcus aureus Newman assessed as 24 hr preformed biofilm disruption at 12.5 to 25 uM incubated for 24 hrs by XTT assay. Format: functional, organism-based.
Data set [25] concerns Staphylococcus aureus. The data set can be described thus: Antibiofilm activity against Staphylococcus aureus JE2 assessed as inhibition of bacterial attachment at 3.1 to 25 uM incubated for 24 hrs by XTT/PMS assay. Format: functional, organism-based.
Data set [26] has as its system Staphylococcus aureus. The data set can be described thus: Antibiofilm activity against Staphylococcus aureus JE2 assessed as 24 hr preformed biofilm disruption at 3.1 to 25 uM incubated for 24 hrs by XTT assay. Format: functional, organism-based.
In data set [27] the test system is Staphylococcus aureus. The data set can be described thus: Antibiofilm activity against Staphylococcus aureus harboring sasC mutant assessed as 24 hr preformed biofilm disruption at 3.1 to 25 uM incubated for 24 hrs by XTT assay. It counts as functional, organism-based.
In data set [28] the test system is Staphylococcus aureus. Briefly: Antibiofilm activity against Staphylococcus aureus clinical isolate USA200 assessed as 24 hr preformed biofilm disruption at 12.5 to 25 uM incubated for 24 hrs by XTT assay. It counts as functional, organism-based.
Data set [29] concerns Staphylococcus aureus. Briefly: Antibiofilm activity against Staphylococcus aureus clinical isolate USA400 assessed as 24 hr preformed biofilm disruption at 12.5 to 25 uM incubated for 24 hrs by XTT assay. It counts as functional, organism-based.
In data set [30] the test system is Staphylococcus aureus. The data set can be described thus: Antibiofilm activity against Staphylococcus aureus clinical isolate USA300 assessed as 24 hr preformed biofilm disruption at 12.5 to 25 uM incubated for 24 hrs by XTT assay. Format: functional, organism-based.
In data set [31] the test system is Staphylococcus aureus. Briefly: Antibiofilm activity against Staphylococcus aureus harboring sasC mutant assessed as inhibition of bacterial attachment at 3.1 to 25 uM incubated for 24 hrs by XTT/PMS assay. It counts as functional, organism-based.
The test system of data set [32] is Staphylococcus aureus. Briefly: Antibiofilm activity against Staphylococcus aureus harboring […] mutant assessed as 24 hr preformed biofilm disruption at 3.1 to 25 uM incubated for 24 hrs by XTT assay. Format: functional, organism-based.

What is called MIC is the smallest concentration in the dilution series that meets the test's criterion for growth inhibition. For orientation: HC50 means the concentration giving 50% haemolysis. A lower HC50 goes with stronger haemolysis.

≈ marks a conversion by molar mass, not a printed value. Calls of active or inactive are those of the source. Where a SMILES comes first, the peptide text is derived from it. [ ]: non-standard residue; d: D form. Bip = N[C@@H](Cc1ccc(-c2ccccc2)cc1)C(=O)O

As for `CC[C@H](C)[C@H](NC(=O)[C@H](CCCNC(=N)N)NC(=O)[C@H](CCC(N)=O)NC(=O)[C@@H](NC(=O)[C@@H](NC(=O)[C@H](CCCNC(=N)N)NC(=O)[C@H](CCCCN)NC(=O)[C@H](Cc1ccccc1)NC(=O)CN)[C@@H](C)CC)C(C)C)C(=O)N[C@@H](CCCCN)C(=O)N[C@@H](CC(=O)O)C(=O)N[C@@H](Cc1ccccc1)C(=O)N[C@@H](CC(C)C)C(=O)N[C@@H](CCCNC(=N)N)C(=O)N[C@@H](CC(N)=O)C(=O)N[C@@H](CC(C)C)C(=O)N[C@H](C(=O)O)C(C)C` (H-GFKRIVQRIKDFLRNLV-OH), the MIC in the data set on Staphylococcus aureus [1] was 1.56 µM (≈ 3.28 µg/mL); with Staphylococcus aureus [4], 1.56 µM (≈ 3.28 µg/mL); with Staphylococcus aureus [8], 1.56 µM (≈ 3.28 µg/mL); with Staphylococcus aureus [9] it was 3.1 µM (≈ 6.52 µg/mL); against Staphylococcus aureus [10], 1.56 µM (≈ 3.28 µg/mL); in the data set on Staphylococcus aureus [17] it was 1.56 µM (≈ 3.28 µg/mL). The outcome in the data set with Staphylococcus aureus [2], in the data set on Staphylococcus aureus [5], with Staphylococcus aureus [6], with Staphylococcus aureus [11], in the data set on Staphylococcus aureus [12] and in the data set on Staphylococcus aureus [13] was Active. Besides, the result in the data set with Staphylococcus aureus [14] and with Staphylococcus aureus [16] was Active. The inhibition result in the data set with Staphylococcus aureus [3] and in the data set on Staphylococcus aureus [18] was “Active” in each case. In addition, in [7], the HC50 at 1 h came out at 120 µM. Besides, the Activity entry in the data set with HaCaT is recorded as “Non-toxic”. Further, the result with Staphylococcus aureus [15] was inactive.

Turning to `CC(C)C[C@H](NC(=O)[C@H](Cc1ccc(-c2ccccc2)cc1)NC(=O)[C@H](CC(=O)O)NC(=O)[C@H](CCCCN)NC(=O)[C@H](CC(C)C)NC(=O)[C@H](CCCNC(=N)N)NC(=O)[C@H](CCC(N)=O)NC(=O)[C@@H](NC(=O)[C@H](CC(C)C)NC(=O)[C@H](CCCNC(=N)N)NC(=O)[C@H](CCCCN)NC(=O)[C@H](Cc1ccc(-c2ccccc2)cc1)NC(=O)CN)C(C)C)C(=O)N[C@@H](CCCNC(=N)N)C(=O)N[C@@H](CC(N)=O)C(=O)N[C@@H](CC(C)C)C(=O)N[C@H](C(N)=O)C(C)C` (H-G[Bip]KRLVQRLKD[Bip]LRNLV-NH2), the result in the data set with Staphylococcus aureus [19], in the data set on Staphylococcus aureus [21], in the data set on Staphylococcus aureus [2], in the data set on Staphylococcus aureus [22], in the data set with Staphylococcus aureus [24] and in the data set on Staphylococcus aureus [6] was Active. The result in the data set with Staphylococcus aureus [26], with Staphylococcus aureus [27], in the data set with Staphylococcus aureus [28], in the data set with Staphylococcus aureus [29], with Staphylococcus aureus [30] and in the data set with Staphylococcus aureus [13] was Active. Also, the outcome with Staphylococcus aureus [32] was Active. The MIC with Staphylococcus aureus [1], in the data set with Staphylococcus aureus [4], in the data set on Staphylococcus aureus [8], in the data set with Staphylococcus aureus [9], against Staphylococcus aureus [10] and against Staphylococcus aureus [17] was 3.1 µM (≈ 6.99 µg/mL) throughout. The inhibition result with Staphylococcus aureus [20], in the data set with Staphylococcus aureus [3], in the data set with Staphylococcus aureus [23], in the data set on Staphylococcus aureus [25], in the data set on Staphylococcus aureus [18] and in the data set on Staphylococcus aureus [31] was “Active” throughout. In [7], the HC50 at 1 h came to 120 µM. Moreover, the Activity result with HaCaT was “Non-toxic”.
